One data set concerns laccase (NS51003). The data set is described as follows: Chicago Blue (Direct Blue 1) dye bleaching assay for laccase mediators. The class given is biochemical, Aspergillus sp. The following applies: potential mediator 0.1 micromole/ml, decrease in absorbance at 610 nm. On the procedure: The Chicago Blue Dye, also known as Direct Blue 1 or DB 1, was used to identify these compounds. The Chicago Blue Dye is fully described by Schneider et al. in U.S. Pat. No. 5,885,304, which is hereby incorporated by reference, and has the following formula. [drawing 10]
Each of the test compounds (i.e., potential mediators) was dissolved in water, or in ethanol if the potential mediator was not water soluble, and then mixed with a phosphate buffer and a Chicago Blue solution. […] The change in the absorbance at A610 nm was measured immediately using a UV-VIS spectrophotometer (UV-1201, Shimadzu Scientific Instruments) after the enzyme was added. The decrease in absorbance was recorded at 30-second intervals for 5 minutes and was used to estimate the efficiency of the mediator.
Experiments were conducted at pH levels of 5.5 and 7.0. The last column gives the decrease in absorbance at 610 nm. The larger the decrease in absorbance at 610 nm, the better is the ability to discolor the dye.

A short description of data set [1]: Appearance of potential mediator in water. It is filed as physicochemical.
Data set [2] relates to laccase (NS51003, Novozymes A/S) and xylanase (Pulpzyme HC, Novozymes A/S). The data set is described as follows: Bleaching of Chicago Blue at pH 7.0 with laccase and xylanase combination. It is filed as biochemical. Particulars: mediator 20 μM. On the procedure: In the following example, the enzyme enhancing agent N-benzylidenebenzylamine was used as a mediator for a laccase to enhance the bleaching of Chicago Blue at pH 7.0 in the presence of a laccase and a xylanase.
The activity of the xylanase (Pulpzyme HC, Novozymes A/S) is 1000 units per ml enzyme solution. One xylanase unit is defined as the amount of enzyme which, under standard conditions (pH 9.0, 50° C., 30 minutes of incubation), release one micromole of the dye from a dyed RBB xylan.
N-Benzylidenebenzylamine was dissolved in ethanol and then mixed with a phosphate buffer and a Chicago Blue solution. A solution of laccase (NS51003, Novozymes A/S) and xylanase (Pulpzyme HC, Novozymes A/S) was added to make 1 ml of the final solution, containing 20 uM of the mediator, 20 mM buffer at pH 7.0 and Chicago Blue solution, with absorbance at A610 nm between 0.6 to 0.8. After the enzyme was added, the change in the absorbance was measured immediately using a UV spectrophotometer (UV-1201, Shimadzu Scientific Instruments). The decrease in absorbance was recorded after 3 minutes and was used to estimate the results of bleaching.

As to `Nc1ccccn1` [2-Aminopyridine], the “ΔmA610 (3 min)” value worked out at 3 in the data set on laccase (NS51003) (pH 5.5) and 2 in the data set with laccase (NS51003) (pH 7.0). For the same compound, the Appearance in water result in data set [1] (Table 1 (pH 5.5 series)) and in data set [1] (Table 2 (pH 7.0 series)) was “light brown” throughout.

Take `O=C(O)C=Cc1ccccc1Cl` [2-Chlorocinnamic acid]: the “ΔmA610 (3 min)” value with laccase (NS51003) (pH 5.5) was determined as 9. In data set [1] (Table 1 (pH 5.5 series)), the Appearance in water entry is given as “cloudy”.

Turning to `O=C(O)C=Cc1ccccc1O` [2-Hydroxycinnamic acid], the “ΔmA610 (3 min)” value in the data set with laccase (NS51003) (pH 5.5) is listed as 5. Also, the Appearance in water result in data set [1] (Table 1 (pH 5.5 series)) is “clear”.

Consider `COc1cc(C=CC(=O)O)cc(OC)c1OC` [3,4,5-Trimethoxycinnamic acid], for which the “ΔmA610 (3 min)” value with laccase (NS51003) (pH 5.5) was 5. The Appearance in water result in data set [1] (Table 1 (pH 5.5 series)) was “cloudy”.

For `COc1ccc(C=CC(=O)O)cc1OC` [3,4-Dimethoxycinnamic acid], in the data set on laccase (NS51003) (pH 5.5), the “ΔmA610 (3 min)” value worked out at 0. Besides, the Appearance in water result in data set [1] (Table 1 (pH 5.5 series)) was “clear”.

`COc1cc(C=CC(=O)O)cc(OC)c1O` [3,5-Dimethoxy-4-hydroxycinnamic acid]: the “ΔmA610 (3 min)” value in the data set on laccase (NS51003) (pH 5.5) turned out to be 491. In data set [1] (Table 1 (pH 5.5 series)), the Appearance in water entry is listed as “clear”.

Regarding `O=C(O)C=Cc1cccc(Cl)c1` [3-Chlorocinnamic acid], the “ΔmA610 (3 min)” value with laccase (NS51003) (pH 5.5) is given as 8. Besides, the Appearance in water entry in data set [1] (Table 1 (pH 5.5 series)) is reported as “cloudy”.

`COc1ccc(C=CC(=O)O)cc1O` [3-Hydroxy-4-methoxycinnamic acid]: the “ΔmA610 (3 min)” value with laccase (NS51003) (pH 5.5) was found to be 94. Further, the Appearance in water entry in data set [1] (Table 1 (pH 5.5 series)) is “clear”.

Take `O=C(O)C=Cc1cccc(O)c1` [3-Hydroxycinnamic acid]: the “ΔmA610 (3 min)” value with laccase (NS51003) (pH 5.5) worked out at 7. For the same compound, the Appearance in water entry in data set [1] (Table 1 (pH 5.5 series)) is given as “clear”.

`COc1cccc(C=CC(=O)O)c1` [3-Methoxycinnamic acid]: the “ΔmA610 (3 min)” value in the data set with laccase (NS51003) (pH 5.5) is 4. Further, in data set [1] (Table 1 (pH 5.5 series)), the Appearance in water result is reported as “clear”.

As to `CN(C)c1ccc(C=CC(=O)O)cc1` [4-(Dimethylamino)cinnamic acid], the “ΔmA610 (3 min)” value with laccase (NS51003) (pH 5.5) is 519. In data set [1] (Table 1 (pH 5.5 series)), the Appearance in water entry is recorded as “clear, yellow”.

Take `Nc1ccc(C=CC(=O)O)cc1` [4-Aminocinnamic acid]: the “ΔmA610 (3 min)” value with laccase (NS51003) (pH 5.5) is on record as 43. Further, the Appearance in water result in data set [1] (Table 1 (pH 5.5 series)) is “clear”.

Regarding `O=C(O)C=Cc1ccc(Cl)cc1` [4-Chlorocinnamic acid], the “ΔmA610 (3 min)” value with laccase (NS51003) (pH 5.5) came out at 13. For the same compound, the Appearance in water entry in data set [1] (Table 1 (pH 5.5 series)) is recorded as “cloudy”.

As for `COc1cc(C=CC(=O)O)ccc1O` [4-Hydroxy-3-methoxycinnamic acid], the “ΔmA610 (3 min)” value in the data set on laccase (NS51003) (pH 5.5) was determined as 441.

For `O=C(O)C=Cc1ccc(O)cc1` [4-Hydroxycinnamic acid], in the data set with laccase (NS51003) (pH 5.5), the “ΔmA610 (3 min)” value is on record as 42. The Appearance in water result in data set [1] (Table 1 (pH 5.5 series)) is reported as “clear”.

For `COc1ccc(C=CC(=O)O)cc1` [4-Methoxycinnamic acid], the “ΔmA610 (3 min)” value in the data set on laccase (NS51003) (pH 5.5) is recorded as 6. The Appearance in water entry in data set [1] (Table 1 (pH 5.5 series)) was “cloudy”.

As for `O=C(O)C=Cc1ccc([N+](=O)[O-])cc1` [4-Nitrocinnamic acid], in the data set with laccase (NS51003) (pH 5.5), the “ΔmA610 (3 min)” value is on record as 0. The Appearance in water result in data set [1] (Table 1 (pH 5.5 series)) is recorded as “cloudy”.

On to `O=C(O)C=Cc1ccccc1` [Cinnamic acid], for which the “ΔmA610 (3 min)” value in the data set on laccase (NS51003) (pH 5.5) is given as 3. The Appearance in water entry in data set [1] (Table 1 (pH 5.5 series)) is on record as “clear”.

For `CCOC(=O)c1ccccc1O` [Ethyl Salicylate], the “ΔmA610 (3 min)” value in the data set on laccase (NS51003) (pH 5.5) is listed as 2. Besides, the Appearance in water result in data set [1] (Table 1 (pH 5.5 series)) is on record as “cloudy”.

As for `O=C1Nc2ccccc2C1=O` [Isatin], the “ΔmA610 (3 min)” value in the data set with laccase (NS51003) (pH 5.5) is reported as 6. Further, in data set [1] (Table 1 (pH 5.5 series)), the Appearance in water result is reported as “clear”.

With `Nc1nc(N)nc(N)n1` [Melamine], the “ΔmA610 (3 min)” value in the data set with laccase (NS51003) (pH 5.5) was 128. Also, in data set [1] (Table 1 (pH 5.5 series)), the Appearance in water result is “cloudy”.

As to `C(=NCc1ccccc1)c1ccccc1` [N-benzylidene benzylamine], the “ΔmA610 (3 min)” value is 28 with laccase (NS51003) (pH 5.5) and 2 with laccase (NS51003) (pH 7.0). The “mA610 (3 min)” value in data set [2] (laccase 0% v/v, xylanase 0.5% v/v) is recorded as 112; in data set [2] (laccase 0.5% v/v, xylanase 0% v/v), 11; in data set [2] (laccase 0.5% v/v, xylanase 0.5% v/v), 163. Besides, the Appearance in water entry in data set [1] (Table 1 (pH 5.5 series)) and in data set [1] (Table 2 (pH 7.0 series)) was “clear” throughout.

For the compound `O=C(O)c1ccccc1O` [Salicylic acid], the “ΔmA610 (3 min)” value in the data set on laccase (NS51003) (pH 5.5) was determined as 11. In data set [1] (Table 1 (pH 5.5 series)), the Appearance in water result is reported as “clear”.

Turning to `COc1ccc(CO)cc1OC` [Veratryl alcohol], in the data set on laccase (NS51003) (pH 5.5), the “ΔmA610 (3 min)” value is 3. In addition, the Appearance in water result in data set [1] (Table 1 (pH 5.5 series)) is given as “clear”.

These data come from patent US20030096394A1, “Laccase activity enhancers” (priority 2001, published 2003).
